{"source": "ChEMBL document CHEMBL1201862", "about": "“PubChem BioAssay data set” (2004)", "assay_in_all_cases": "NCI tumour cell line growth inhibition, 48 h", "key": {"[1]": {"test_system": "786-0"}, "[2]": {"test_system": "A498"}, "[3]": {"test_system": "A549"}, "[4]": {"test_system": "ACHN"}, "[5]": {"test_system": "CAKI-1"}, "[6]": {"test_system": "CCRF-CEM"}, "[7]": {"test_system": "COLO 205"}, "[8]": {"test_system": "DU-145"}, "[9]": {"test_system": "EKVX"}, "[10]": {"test_system": "HCT-116"}, "[11]": {"test_system": "HL-60"}, "[12]": {"test_system": "HOP-62"}, "[13]": {"test_system": "HOP-92"}, "[14]": {"test_system": "HT-29"}, "[15]": {"test_system": "Hs-578T"}, "[16]": {"test_system": "IGROV-1"}, "[17]": {"test_system": "K562"}, "[18]": {"test_system": "KM12"}, "[19]": {"test_system": "LOX IMVI"}, "[20]": {"test_system": "M14"}, "[21]": {"test_system": "MCF7"}, "[22]": {"test_system": "MDA-MB-231"}, "[23]": {"test_system": "MDA-N"}, "[24]": {"test_system": "MOLT-4"}, "[25]": {"test_system": "Malme-3M"}, "[26]": {"test_system": "NCI-H226"}, "[27]": {"test_system": "NCI-H23"}, "[28]": {"test_system": "NCI-H522"}, "[29]": {"test_system": "NCI/ADR-RES"}, "[30]": {"test_system": "OVCAR-3"}, "[31]": {"test_system": "OVCAR-5"}, "[32]": {"test_system": "OVCAR-8"}, "[33]": {"test_system": "PC-3"}, "[34]": {"test_system": "RPMI-8226"}, "[35]": {"test_system": "SF-268"}, "[36]": {"test_system": "SF-295"}, "[37]": {"test_system": "SF-539"}, "[38]": {"test_system": "SK-MEL-28"}, "[39]": {"test_system": "SK-MEL-2"}, "[40]": {"test_system": "SK-MEL-5"}, "[41]": {"test_system": "SK-OV-3"}, "[42]": {"test_system": "SN12C"}, "[43]": {"test_system": "SNB-19"}, "[44]": {"test_system": "SNB-75"}, "[45]": {"test_system": "SW-620"}, "[46]": {"test_system": "T47D"}, "[47]": {"test_system": "TK-10"}, "[48]": {"test_system": "U-251"}, "[49]": {"test_system": "UACC-257"}, "[50]": {"test_system": "UACC-62"}, "[51]": {"test_system": "UO-31"}, "[52]": {"test_system": "HCC 2998"}, "[53]": {"test_system": "HCT-15"}, "[54]": {"test_system": "MDA-MB-435"}, "[55]": {"test_system": "NCI-H460"}, "[56]": {"test_system": "OVCAR-4"}, "[57]": {"test_system": "RXF 393"}, "[58]": {"test_system": "SR"}}, "note": "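Following 48 hours of exposure in 96-well plates, responses at five concentrations were used to interpolate endpoints linearly. The concentration for 50% growth inhibition is given as GI50.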 Active and inactive are the calls of the source. No stated cut-off is given here; in the data, active = GI50 up to about 1.1 µM and inactive = higher."}
{"smiles": "CC(O)c1nc(C#N)c(N)o1", "note": "(stereo not drawn)", "values": [{"measurement": "GI50", "setting": "[1]", "result": "> 100 µM (inactive)"}, {"measurement": "GI50", "setting": "[2]", "result": "> 100 µM (inactive)"}, {"measurement": "GI50", "setting": "[3]", "result": "> 100 µM (inactive)"}, {"measurement": "GI50", "setting": "[4]", "result": "> 100 µM (inactive)"}, {"measurement": "GI50", "setting": "[5]", "result": "> 100 µM (inactive)"}, {"measurement": "GI50", "setting": "[6]", "result": "> 100 µM (inactive)"}, {"measurement": "GI50", "setting": "[7]", "result": "> 100 µM (inactive)"}, {"measurement": "GI50", "setting": "[8]", "result": "> 100 µM (inactive)"}, {"measurement": "GI50", "setting": "[9]", "result": "> 100 µM (inactive)"}, {"measurement": "GI50", "setting": "[10]", "result": "> 100 µM (inactive)"}, {"measurement": "GI50", "setting": "[11]", "result": "> 100 µM (inactive)"}, {"measurement": "GI50", "setting": "[12]", "result": "> 100 µM (inactive)"}, {"measurement": "GI50", "setting": "[13]", "result": "> 100 µM (inactive)"}, {"measurement": "GI50", "setting": "[14]", "result": "> 100 µM (inactive)"}, {"measurement": "GI50", "setting": "[15]", "result": "> 100 µM (inactive)"}, {"measurement": "GI50", "setting": "[16]", "result": "> 100 µM (inactive)"}, {"measurement": "GI50", "setting": "[17]", "result": "> 100 µM (inactive)"}, {"measurement": "GI50", "setting": "[18]", "result": "> 100 µM (inactive)"}, {"measurement": "GI50", "setting": "[19]", "result": "> 100 µM (inactive)"}, {"measurement": "GI50", "setting": "[20]", "result": "> 100 µM (inactive)"}, {"measurement": "GI50", "setting": "[21]", "result": "> 100 µM (inactive)"}, {"measurement": "GI50", "setting": "[22]", "result": "> 100 µM (inactive)"}, {"measurement": "GI50", "setting": "[23]", "result": "> 100 µM (inactive)"}, {"measurement": "GI50", "setting": "[24]", "result": "> 100 µM (inactive)"}, {"measurement": "GI50", "setting": "[25]", "result": "> 100 µM (inactive)"}, {"measurement": "GI50", "setting": "[26]", "result": "> 100 µM (inactive)"}, {"measurement": "GI50", "setting": "[27]", "result": "> 100 µM (inactive)"}, {"measurement": "GI50", "setting": "[28]", "result": "> 100 µM (inactive)"}, {"measurement": "GI50", "setting": "[29]", "result": "> 100 µM (inactive)"}, {"measurement": "GI50", "setting": "[30]", "result": "> 100 µM (inactive)"}, {"measurement": "GI50", "setting": "[31]", "result": "> 100 µM (inactive)"}, {"measurement": "GI50", "setting": "[32]", "result": "> 100 µM (inactive)"}, {"measurement": "GI50", "setting": "[33]", "result": "> 100 µM (inactive)"}, {"measurement": "GI50", "setting": "[34]", "result": "> 100 µM (inactive)"}, {"measurement": "GI50", "setting": "[35]", "result": "> 100 µM (inactive)"}, {"measurement": "GI50", "setting": "[36]", "result": "> 100 µM (inactive)"}, {"measurement": "GI50", "setting": "[37]", "result": "> 100 µM (inactive)"}, {"measurement": "GI50", "setting": "[38]", "result": "> 100 µM (inactive)"}, {"measurement": "GI50", "setting": "[39]", "result": "> 100 µM (inactive)"}, {"measurement": "GI50", "setting": "[40]", "result": "> 100 µM (inactive)"}, {"measurement": "GI50", "setting": "[41]", "result": "> 100 µM (inactive)"}, {"measurement": "GI50", "setting": "[42]", "result": "> 100 µM (inactive)"}, {"measurement": "GI50", "setting": "[43]", "result": "> 100 µM (inactive)"}, {"measurement": "GI50", "setting": "[44]", "result": "> 100 µM (inactive)"}, {"measurement": "GI50", "setting": "[45]", "result": "> 100 µM (inactive)"}, {"measurement": "GI50", "setting": "[46]", "result": "> 100 µM (inactive)"}, {"measurement": "GI50", "setting": "[47]", "result": "> 100 µM (inactive)"}, {"measurement": "GI50", "setting": "[48]", "result": "> 100 µM (inactive)"}, {"measurement": "GI50", "setting": "[49]", "result": "> 100 µM (inactive)"}, {"measurement": "GI50", "setting": "[50]", "result": "> 100 µM (inactive)"}, {"measurement": "GI50", "setting": "[51]", "result": "> 100 µM (inactive)"}]}
{"smiles": "COc1cc2c(c3c1c(=O)c1ccccc1n3C)C=C([N+](=O)[O-])C(C)(C)O2", "values": [{"measurement": "GI50", "setting": "[1]", "result": "0.328 µM (active)"}, {"measurement": "GI50", "setting": "[2]", "result": "0.0253 µM (active)"}, {"measurement": "GI50", "setting": "[3]", "result": "0.0247 µM (active)"}, {"measurement": "GI50", "setting": "[4]", "result": "0.0506 µM (active)"}, {"measurement": "GI50", "setting": "[5]", "result": "0.223 µM (active)"}, {"measurement": "GI50", "setting": "[6]", "result": "0.468 µM (active)"}, {"measurement": "GI50", "setting": "[7]", "result": "0.0253 µM (active)"}, {"measurement": "GI50", "setting": "[8]", "result": "< 0.0456 µM (active)"}, {"measurement": "GI50", "setting": "[52]", "result": "0.325 µM (active)"}, {"measurement": "GI50", "setting": "[10]", "result": "0.239 µM (active)"}, {"measurement": "GI50", "setting": "[53]", "result": 0.355, "unit": "µM"}, {"measurement": "GI50", "setting": "[11]", "result": "0.167 µM (active)"}, {"measurement": "GI50", "setting": "[12]", "result": "30.9 µM (inactive)"}, {"measurement": "GI50", "setting": "[13]", "result": "0.431 µM (active)"}, {"measurement": "GI50", "setting": "[14]", "result": "0.522 µM (active)"}, {"measurement": "GI50", "setting": "[15]", "result": "25.6 µM (inactive)"}, {"measurement": "GI50", "setting": "[16]", "result": "0.575 µM (active)"}, {"measurement": "GI50", "setting": "[17]", "result": "0.441 µM (active)"}, {"measurement": "GI50", "setting": "[18]", "result": "> 100 µM (inactive)"}, {"measurement": "GI50", "setting": "[19]", "result": "0.138 µM (active)"}, {"measurement": "GI50", "setting": "[20]", "result": "0.157 µM (active)"}, {"measurement": "GI50", "setting": "[21]", "result": "0.358 µM (active)"}, {"measurement": "GI50", "setting": "[22]", "result": "1.08 µM (active)"}, {"measurement": "GI50", "setting": "[54]", "result": "0.0931 µM (active)"}, {"measurement": "GI50", "setting": "[23]", "result": "0.114 µM (active)"}, {"measurement": "GI50", "setting": "[24]", "result": "0.0861 µM (active)"}, {"measurement": "GI50", "setting": "[26]", "result": "0.546 µM (active)"}, {"measurement": "GI50", "setting": "[27]", "result": "0.395 µM (active)"}, {"measurement": "GI50", "setting": "[55]", "result": "< 0.0201 µM (active)"}, {"measurement": "GI50", "setting": "[28]", "result": "0.365 µM (active)"}, {"measurement": "GI50", "setting": "[29]", "result": "2.09 µM (inactive)"}, {"measurement": "GI50", "setting": "[30]", "result": "> 100 µM (inactive)"}, {"measurement": "GI50", "setting": "[56]", "result": "> 100 µM (inactive)"}, {"measurement": "GI50", "setting": "[32]", "result": "0.532 µM (active)"}, {"measurement": "GI50", "setting": "[33]", "result": "> 100 µM (inactive)"}, {"measurement": "GI50", "setting": "[34]", "result": "> 31.6 µM (inactive)"}, {"measurement": "GI50", "setting": "[57]", "result": "0.132 µM (active)"}, {"measurement": "GI50", "setting": "[35]", "result": "0.608 µM (active)"}, {"measurement": "GI50", "setting": "[36]", "result": "0.647 µM (active)"}, {"measurement": "GI50", "setting": "[37]", "result": "1.36 µM (inactive)"}, {"measurement": "GI50", "setting": "[39]", "result": "0.0991 µM (active)"}, {"measurement": "GI50", "setting": "[40]", "result": "0.0141 µM (active)"}, {"measurement": "GI50", "setting": "[41]", "result": "0.356 µM (active)"}, {"measurement": "GI50", "setting": "[43]", "result": "1.69 µM (inactive)"}, {"measurement": "GI50", "setting": "[44]", "result": "13.2 µM (inactive)"}, {"measurement": "GI50", "setting": "[58]", "result": "0.124 µM (active)"}, {"measurement": "GI50", "setting": "[46]", "result": "> 100 µM (inactive)"}, {"measurement": "GI50", "setting": "[47]", "result": "> 65.2 µM (inactive)"}, {"measurement": "GI50", "setting": "[48]", "result": "26.8 µM (inactive)"}, {"measurement": "GI50", "setting": "[49]", "result": "< 0.0454 µM (active)"}, {"measurement": "GI50", "setting": "[50]", "result": "0.769 µM (active)"}, {"measurement": "GI50", "setting": "[51]", "result": "0.421 µM (active)"}]}
